Reference: the NIST ThermoML archive (doi:10.1021/je500512f)
Numbers after ± are expanded uncertainties.

Test: molar heat capacity at constant pressure
Settings: Liquid, Twin Calvet

CC(F)F [1,1-difluoroethane]
molar heat capacity at constant pressure [J/K/mol]
Settings	1490 kPa	2070 kPa	2540 kPa	2950 kPa	3440 kPa	4010 kPa	4600 kPa	5030 kPa
305.15 K	121 ± 6.1	121.14 ± 6.1	120.81 ± 6.1	120.28 ± 6.1	119.29 ± 6	119.55 ± 6	118.96 ± 6	118.49 ± 6
310.15 K	121.8 ± 6.1	121.53 ± 6.1	121.07 ± 6.1	120.81 ± 6.1	120.08 ± 6.1	119.75 ± 6	119.35 ± 6	119.09 ± 6
315.15 K	123.84 ± 6.3	123.25 ± 6.2	122.79 ± 6.2	122.46 ± 6.2	121.8 ± 6.1	121.2 ± 6.1	120.61 ± 6.1	120.41 ± 6.1
320.15 K	126.16 ± 6.3	125.23 ± 6.3	124.77 ± 6.3	124.24 ± 6.3	123.71 ± 6.3	122.99 ± 6.2	122.06 ± 6.1	121.8 ± 6.1
325.15 K	129 ± 6.5	127.61 ± 6.4	127.01 ± 6.4	126.42 ± 6.4	125.89 ± 6.3	124.97 ± 6.3	123.84 ± 6.3	123.45 ± 6.2
330.15 K	–	130.65 ± 6.6	129.79 ± 6.5	129.13 ± 6.5	128.47 ± 6.5	127.41 ± 6.4	126.09 ± 6.3	125.63 ± 6.3
335.15 K	–	134.21 ± 6.8	133.22 ± 6.7	132.36 ± 6.7	131.44 ± 6.6	130.18 ± 6.5	128.8 ± 6.5	128.27 ± 6.5
340.15 K	–	–	137.25 ± 6.9	136.06 ± 6.9	134.94 ± 6.8	133.49 ± 6.7	131.9 ± 6.7	131.31 ± 6.6
345.15 K	–	–	141.88 ± 7.1	140.36 ± 7.1	139.04 ± 7	137.32 ± 6.9	135.34 ± 6.8	134.61 ± 6.8
350.15 K	–	–	–	146.1 ± 7.4	144.05 ± 7.3	141.88 ± 7.1	139.43 ± 7.1	138.51 ± 7
355.15 K	–	–	–	–	150.66 ± 7.6	147.56 ± 7.5	144.45 ± 7.3	143.2 ± 7.2
360.15 K	–	–	–	–	–	155.02 ± 7.8	151.06 ± 7.6	149.14 ± 7.5
